Data on 42 molecules can be found in ChEMBL document CHEMBL3137381, “MMV Box Onchocerca lienalis screening set”.

What all share (type): functional
The subject of test [1] is Onchocerca lienalis. The experiment in a line: MMV: Percent motility assay at a compound concentration of 3.1e-6 M. Activity score legend: 3: Active, 2: Moderately active; 1: Inactive, 0: Toxic. The conditions noted are these: at 3.1 µM.
In test [2] the test system is Onchocerca lienalis. The experiment in a line: MMV: Percent motility assay at a compound concentration of 1.9e-7 M. Activity score legend: 3: Active, 2: Moderately active; 1: Inactive, 0: Toxic. The conditions noted are these: at 0.19 µM.
Test [3] relates to Onchocerca lienalis. The experiment in a line: MMV: Percent motility assay at a compound concentration of 7.8e-7 M. Activity score legend: 3: Active, 2: Moderately active; 1: Inactive, 0: Toxic. The settings on record: at 0.78 µM.
Test [4] has as its system Onchocerca lienalis. The test is described as follows: MMV: Percent motility assay at a compound concentration of 1.25e-5 M. Activity score legend: 3: Active, 2: Moderately active; 1: Inactive, 0: Toxic. The settings on record: at 12.5 µM.

With `CN1CCN(c2ccc(Nc3c4ccccc4nc4ccccc34)cc2)CC1`, the Motility in test [1], in test [2], in test [3] and in test [4] was 100% throughout.
For the molecule `CCN1CCCC1CNc1[nH]cnc2c3cc(Cl)ccc3nc1-2` (stereo not drawn), the Motility in test [1], in test [2], in test [3] and in test [4] was 100% each time.
Take `C[n+]1c2ccccc2nc2ccc(NCCO)cc21`: the Motility in test [1], in test [2], in test [3] and in test [4] was 100% each time.
With `CCN(CC)CCNc1ncnc2c1[nH]c1ccc(Cl)cc12`, the Motility in test [1], in test [2], in test [3] and in test [4] was 100% each time.
Take `CCOC(=O)c1cnc2ccc(CC)cc2c1O`: the Motility in test [1], in test [2], in test [3] and in test [4] was 100% in each case.
Turning to `Cc1ccc(-c2cc3c(nn2)-c2ccccc2C3=O)cc1`, the Motility in test [1], in test [2], in test [3] and in test [4] was 100% throughout.
In the case of `CCN(CC)CCNc1ccnc2cc(Cl)ccc12`, the Motility in test [1], in test [2], in test [3] and in test [4] was 100% throughout.
For the molecule `Cc1ccc(Nc2nc(-c3ccccn3)cs2)cc1`, the Motility in test [1], in test [2], in test [3] and in test [4] was 100% each time.
Take `COc1ccc(-n2ccnc2SCC(=O)Nc2cc(C)ccc2C)c(OC)c1`: the Motility in test [1], in test [2], in test [3] and in test [4] was 100% each time.
As for `CCN1CCN(Cc2ccc(NC(=O)c3cc4ccc5cccnc5c4[nH]3)cc2)CC1`, the Motility in test [1], in test [2], in test [3] and in test [4] was 100% each time.
Turning to `CCC(c1ccccc1)c1nn2c(-c3cccs3)nnc2s1` (stereo not drawn), the Motility in test [1], in test [2], in test [3] and in test [4] was 100% in each case.
`CCOc1cc2c(cc1OCC)C(c1cc(OC)c(O)cc1Cl)NCC2` (stereo not drawn): the Motility in test [1], in test [2], in test [3] and in test [4] was 100% in each case.
Turning to `CC1CN(C(=O)c2sc3ccccc3c2Cl)CC(C)O1` (stereo not drawn), the Motility in test [1], in test [2], in test [3] and in test [4] was 100% throughout.
On to `CN(C)c1ccc(C=Cc2nc(=O)c3ccccc3o2)cc1`, for which the Motility in test [1], in test [2], in test [3] and in test [4] was 100% throughout.
For the molecule `OC(CNC1CCCCC1)Cn1c2ccccc2c2ccccc21` (stereo not drawn), the Motility in test [1] is listed as 100%; in test [2], 100%; in test [3] it was 100%; in test [4], 60%.
For the molecule `COc1cccc(C=Cc2nc(=O)c3ccccc3o2)c1OC`, the Motility in test [1], in test [2], in test [3] and in test [4] was 100% each time.
Turning to `CCCN(CCC)CC(O)COc1ccccc1C(=O)Nc1ccccc1` (stereo not drawn), the Motility in test [1], in test [2], in test [3] and in test [4] was 100% throughout.
On to `COc1ccc(C(=O)Nc2nonc2-c2ccc(OC)c(OC)c2)cc1Cl`, for which the Motility in test [1], in test [2], in test [3] and in test [4] was 100% each time.
As to `COc1ccc(NC(=O)C2c3ccccc3C(=O)N(CC(C)C)C2c2cccs2)cc1Cl` (stereo not drawn), the Motility in test [1], in test [2], in test [3] and in test [4] was 100% each time.
As to `CCOC(=O)c1c(C)n(-c2ccc(Cl)cc2)c2ccc(OC(=O)C=Cc3ccccc3)cc12`, the Motility in test [1], in test [2], in test [3] and in test [4] was 100% throughout.
In the case of `COc1ccc2c(c1)OC(O)(C(F)(F)C(F)(F)F)CC2=O` (stereo not drawn), the Motility in test [1], in test [2], in test [3] and in test [4] was 100% in each case.
On to `CCOc1cc(Cl)c(C(C)NC(=O)c2ccccc2)cc1OCC` (stereo not drawn), for which the Motility in test [1], in test [2], in test [3] and in test [4] was 100% in each case.
For `C=CC12CCN(CC1)C(C(O)c1ccnc3ccc(OC)cc13)C2.Cl` (stereo not drawn), the Motility in test [1], in test [2], in test [3] and in test [4] was 100% throughout.
`Cc1ccc(-c2cc3nc4c(c(O)n3n2)CCCC4)cc1`: the Motility in test [1], in test [2], in test [3] and in test [4] was 100% throughout.
On to `c1ccc2cc3c(Nc4ccc(N5CCOCC5)cc4)ccnc3cc2c1`, for which the Motility in test [1], in test [2], in test [3] and in test [4] was 100% each time.
For the molecule `Cc1cc(C)c2c(c1)OCN(Cc1ccccc1Cl)C2`, the Motility in test [1], in test [2], in test [3] and in test [4] was 100% in each case.
Regarding `COc1ccccc1NC1=C(N2CCCCC2)C(=O)c2ccccc2C1=O`, the Motility in test [1], in test [2], in test [3] and in test [4] was 100% throughout.
In the case of `CCOC(=O)c1cn(CC)c2cc(N3CCCCC3)c(F)cc2c1=O`, the Motility in test [1], in test [2], in test [3] and in test [4] was 100% each time.
In the case of `CCCc1cc(O)c2c3c(c(=O)oc2c1)CN(C)CC3`, the Motility is given as 100% in test [1], 100% in test [2], 100% in test [3] and 66.6% in test [4].
In the case of `Cc1cc(NC(=O)C2c3ccccc3C(=O)N(CC(C)C)C2c2cccs2)no1` (stereo not drawn), the Motility in test [1], in test [2], in test [3] and in test [4] was 100% each time.
With `CCn1c(SCC(=O)Nc2cc(C(F)(F)F)ccc2Cl)nc2ccccc2c1=O`, the Motility in test [1], in test [2], in test [3] and in test [4] was 100% each time.
With `O=C(Nc1ccc(Cl)cc1C(=O)Nc1ccncc1)c1ccc(Cl)cc1Cl`, the Motility in test [1], in test [2], in test [3] and in test [4] was 100% throughout.
For the molecule `CCOc1ccc(-c2nonc2NC(=O)c2cccc(C)c2)cc1OCC`, the Motility in test [1], in test [2], in test [3] and in test [4] was 100% in each case.
For the molecule `COc1ccc(-c2nc3cc(Cc4ccc5[nH]c(-c6ccc(OC)cc6)nc5c4)ccc3[nH]2)cc1`, the Motility was 100% in test [1], 100% in test [2], 100% in test [3] and 80% in test [4].
In the case of `CCOC(=O)c1ccc2nc(-c3ccccc3)cc(O)c2c1`, the Motility in test [1], in test [2], in test [3] and in test [4] was 100% in each case.
As to `Cc1cc(Nc2ccc(Cl)cc2)n2nc(C(F)(F)F)nc2n1`, the Motility in test [1], in test [2], in test [3] and in test [4] was 100% throughout.
With `CCCCCCOC(=O)C1=C(C)NC(=O)NC1c1ccccc1F` (stereo not drawn), the Motility in test [1] was determined as 100%; in test [2], 100%; in test [3], 100%; in test [4], 6%.
Consider `Cc1ccc(N2C3c4ccccc4N(S(=O)(=O)c4ccc(C)cc4)C2c2ccccc2N3S(=O)(=O)c2ccc(C)cc2)cc1`, for which the Motility in test [1], in test [2], in test [3] and in test [4] was 100% throughout.
For `Cc1ccc(Nc2nc(NCCO)c3ccccc3n2)cc1C`, the Motility in test [1] is listed as 100%; in test [2], 100%; in test [3], 100%; in test [4], 33.33%.
Regarding `CC1CCCCN1CCCNC(=O)c1ccc2c(c1)sc1nc(-c3ccc(F)cc3)cn12` (stereo not drawn), the Motility in test [1] turned out to be 100%; in test [2], 100%; in test [3] it was 100%; in test [4], 80%.
Regarding `COc1ccc(NC(=O)C2c3ccccc3C(=O)N(CC(C)C)C2c2cccs2)cc1` (stereo not drawn), the Motility in test [1], in test [2], in test [3] and in test [4] was 100% each time.
Take `c1ccc(Cn2c(N=Nc3c(Nc4ccccc4)ccc4ccccc34)nc3ccccc32)cc1`: the Motility in test [1], in test [2], in test [3] and in test [4] was 100% in each case.
